Series [1] concerns HL60 cells. In words: Antagonism against all-trans retinoic acid in inducing the differentiation of HL60 cells (CD11b-positive cells, flow cytometry). The series is classed as cell-based. Particulars: Homo sapiens, HL-60, 120 h; CD11b-positive cells induced by 10 nM all-trans retinoic acid, 5 days. The text has this: Antagonism Against All-trans Retinoic Acid in Inducing the Differentiation of HL60 Cells
It is known that human promyelocytic leukemia cells HL60 differentiate into granulocyte-like cells in the presence of all-trans retinoic acid (Breitman, T., Selonick, S., and Collins, S., Proc. Natl. Acad. Sci. U.S.A. 77, 2936(1980)). In general, cells allow specific differentiation antigens to be expressed on the cell surfaces when they have achieved differentiation. When HL60 cells differentiate into granulocyte-like cells, CD11b which is a granulocyte/monocyte discriminating antigen is expressed on the cell surfaces (Fontana, J A., Reppuci, A., Durham, J P., and Mirand, D., Cancer Res. 46, 2469-2473 (1986)). The antagonism of a test compound against the differentiation into granulocyte-like cells induced by all-trans retinoic acid was studied by utilizing this phenomenon.
HL60 cells were cultured and maintained in a medium prepared by adding 10% of inactivated fetal bovine serum, 1 mM of sodium pyridinecarboxylate, 50 μM of β-mercaptoethanol, 100 IU/ml of penicillin and 100 μg/ml of streptomycin to RPMI1640 (culture medium formulated by Rosewell Park Memorial Institute).
An HL60 cell suspension (1×10^5 cells/ml) was put in a 48-well plate in an amount of one ml per unit well, followed by the addition of all-trans retinoic acid in a concentration of […] and a retinoid antagonist in various concentrations. The resulting mixtures were cultured in a 5% CO2-air incubator for 5 days. After the completion of the culture, the cells in each well was recovered into a test tube, followed by the addition of an FITC-labeled monoclonal antibody against CD11b (which is a specific antigen against glanulocytes and monocytes). The resulting cell suspension was fixed with 0.2% paraformaldehyde. The fixed cell suspension thus obtained was examined for the content of CD11b-positive cells in the HL60 cell population of each well by flow cytometry (Miller, L. J., Schwarting, R., and Springer, T A., J. Immunol. 137, 2891-2900 (1986)). The compounds which will be described below lowered the content of CD11b-positive cells induced by 10 nM all-trans retinoic acid dependently on the concentration.
In general terms: Flow cytometry measures light scatter and fluorescence of single cells or particles in a stream.

For series [2], the target named is T1, all-trans retinoic acid receptors (RAR) (Homo sapiens, UniProt P10276).
T1 construct: determined by the use of the nuclear extract fraction of HL60; endogenous in cells; host or cells: HL60 human promyelocytic leukemia cells, nuclear extract fraction
T1 sequence (P10276 1-462): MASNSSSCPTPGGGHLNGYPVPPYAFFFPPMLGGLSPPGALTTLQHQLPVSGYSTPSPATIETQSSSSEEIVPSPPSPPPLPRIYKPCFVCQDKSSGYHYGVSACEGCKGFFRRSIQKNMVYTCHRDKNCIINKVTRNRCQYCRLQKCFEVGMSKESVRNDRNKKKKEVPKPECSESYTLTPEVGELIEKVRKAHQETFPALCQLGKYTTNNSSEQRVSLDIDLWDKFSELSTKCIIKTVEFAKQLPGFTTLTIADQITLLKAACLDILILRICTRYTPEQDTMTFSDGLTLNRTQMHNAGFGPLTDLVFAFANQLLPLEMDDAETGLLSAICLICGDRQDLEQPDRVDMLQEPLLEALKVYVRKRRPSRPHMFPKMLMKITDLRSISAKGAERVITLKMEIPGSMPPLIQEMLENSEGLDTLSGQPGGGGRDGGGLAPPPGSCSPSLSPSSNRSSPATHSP
In words: Receptor binding assay using nuclear extract fraction of human promyelocytic leukemia cell HL60. To be noted: inhibition of specific binding of 3H-all-trans retinoic acid, 4° C., 16 hours. The procedure: Receptor Binding Assay Using Human Promyelocytic Leukemia Cell HL60
It is known that all-trans retinoic acid receptors (retinoic acid receptor: RAR) are is present in the nuclei of HL60 cells (Clara Nervi et al., Proc. Natl. Acad. Sci. U.S.A. 86, 5854(1989)). Therefore, the specific binding of all-trans retinoic acid for RAR was determined by the use of the nuclear extract fraction of HL60, and each test compound was examined for the ability to bind RAR by determining the inhibition against the specific binding.
The nuclear extract fraction was prepared as follows.
HL60 cells (5×10^8) were suspended in 15 ml of solution A (sodium phosphate (pH7.4): 5 mM, monothioglycerol: 10 mM, glycerol: 10% (v/v), phenylmethylsulfonyl fluoride (PMSF): 1 mM, aprotinin: 10 μg/ml, and leupeptin: 25 μg/ml). The obtained suspension was homogenized by the use of a homogenizer and centrifuged to remove the resulting supernatant. The sediment thus formed was suspended in 15 ml of solution B (Tris-HCl(pH8.5): 10 mM, monothioglycerol: 10 mM, glycerol: 10% (v/v), PMSF: 1 mM, aprotinin: 10 μg/ml, leupeptin: 25 μg/ml, and KCl: 0.8 M). The obtained suspension was allowed to stand at 4° C. for one hour, and subjected to ultracentrifugation (100,000×g, 4° C., 1 hr). The obtained supernatant was stored as the nuclear extract fraction in a frozen state at −80° C. until the use (METHODS IN ENZYMOLOGY, 189, 248).
The receptor binding assay was conducted as follows.
180 μl of the above fraction and 10 μl of a dilution of all-trans retinoic acid or a test compound were added to each well of a 96-well plate made of polypropylene, followed by the addition of 10 μl of 10 nM^3H-all-trans retinoic acid. The resulting plate was allowed to stand at 4° C. for 16 hours. A solution containing 3% of charcoal and 0.3% of dextran was added to the resulting reaction mixture. The mixture thus obtained was centrifuged to remove free ^3H-all-trans retinoic acid. The radioactivity of the resulting supernatant was determined by the use of a scintillation counter. The specific binding of ^3H-all-trans retinoic acid for RAR was determined by assuming the radioactivity found when 200 times as much all-trans retinoic acid was added to be the non-specific binding and subtracting it from the radioactivity determined above. The compounds which will be described below inhibited the binding of ^3H-all-trans retinoic acid dependently on the concentration.

The text below walks through data of patent publication US6420363B1, “Mono- or polyenic carboxylic acid derivatives” (Eisai Co., Ltd., priority 1994, dated 2002).

The term melting point denotes the temperature of the solid-liquid transition. For orientation: IC50 means the point on the concentration scale where inhibition reaches its midpoint. A high value points to lower potency.

Molecule `CC1(C)CCC(C)(C)c2c1sc1c2-c2c(c(-c3ccc(C(=O)O)cc3)cn2Cc2cccnc2)CC1` [Example 210] registered a melting point of 289 to 290 °C.
Regarding `CC(/C=C/C(C)=C/c1ccc2c(c1)CCCN2C(C)C)=C\C(=O)O` [Example 4, (E,E,E)-7-[1-(1-methylethyl)-1,2,3,4-tetrahydroquinolin-6-yl]-3,6-dimethyl-hepta-2,4,6-trienoic acid], the figures for the IC50 in series [1] and in series [2] were 74 nM and 20 nM, respectively.
The like results for `COC(=O)/C=C(C)/C=C/C(F)=C(/C)c1ccc2c(c1)CC(C)CN2C(C)C` (stereo not shown) [Example 14, Methyl (E,E,E)-7-[1-(1-methylethyl)-3-methyl-1,2,3,4-tetrahydroquinolin-6-yl]-6-fluoro-3-methyl-octa-2,4,6-trienoate] were, in that order, 130 nM and 13 nM.
The like results for `COC(=O)/C=C(C)/C=C/C(F)=C(/C)c1ccc2c(c1)C(C)CCN2C(C)C` (stereo not shown) [Example 8, Methyl (E,E,E)-7-[1-(1-methylethyl)-4-methyl-1,2,3,4-tetrahydroquinolin-6-yl]-6-fluoro-3-methyl-octa-2,4,6-trienoate] were, in that order, 470 nM and 17 nM.
The like results for `CC(/C=C/C(F)=C(/C)c1ccc2c(c1)C(C)CCN2C(C)C)=C\C(=O)O` (stereo not shown) [Example 9, (E,E,E)-7-[1-(1-Methylethyl)-4-methyl-1,2,3,4-tetrahydroquinolin-6-yl]-6-fluoro-3-methyl-octa-2,4,6-trienoic acid] were, in that order, 880 nM and over 50 nM.
Regarding `CCOC(=O)/C(F)=C(/C)c1ccc2c(c1)CC(C)CN2C(C)C` (stereo not shown) [Example 13, Ethyl (E)-3-[1-(1-methylethyl)-3-methyl-1,2,3,4-tetrahydroquinolin-6-yl]-2-fluoro-2-butenoate], the IC50 in series [1] was 29 nM; in series [2], 12.5 nM.
The like results for `CC(/C=C/C(F)=C(/C)c1ccc2c(c1)CCCN2C(C)C)=C\C(=O)O` [Example 5, (E,E,E)-7-[1-(1-methylethyl)-1,2,3,4-tetrahydroquinolin-6-yl]-6-fluoro-3-methyl-octa-2,4,6-trienoic acid] were, in that order, 39 nM and 5.4 nM.
